From patent US20210402011A1, “A COMPOUND FOR THE DETECTION OF HNO IN BIOLOGICAL SYSTEMS” (COUNCIL. OF SCIENTIFIC AND INDUSTRIAL RESEARCH, priority 2016, published 2021)

Columns and labels:
RAW 264.7 cells [1] = assay: MTT assay, in vitro cytotoxicity on RAW 264.7 cells; format: cell-based
Method: The in vitro cytotoxicity of ER-HNO on RAW 264.7 cells were determined by conventional MTT (3-(4, 5-Dimethylthiazol-2-yl)-2, 5-diphenyltetrazolium bromide) assay. RAW 264.7 cells (5×103) were seeded in each well of a 96 well plate and cultured in a 37° C. incubator supplied with 5% CO2. Cells were maintained in DMEM medium, supplemented with 10% Foetal Bovine Serum and 100 Units of Penicillin Streptomycin antibiotics. After 24 hours the cells were treated with different concentrations of the ER-HNO in triplicates for 24 hours. After the treatment, cells were added with […] of MTT reagent. The plate was then incubated for 4 hours at 37° C. 100 μl of Isopropyl Alcohol was added to each well. Optical density was measured at 570 nm using Multiskan Go (Thermo Scientific) to find the concentration of the cell inhibition. IC50 value has been calculated to be 90 μM.
The formula used for the calculation of the MTT assay for evaluation of the cell viability was as follows:
Cell viability (%)=(Means of absorbance value of treated group/Means of absorbance value of untreated control)×100.

RAW 264.7 cells [2] = assay: CLSM imaging of HNO in RAW 264.7 cells; format: cell-based; details: RAW 264.7, probe 1.0 μM 15 min 37° C., then AS
Method: The toxicity of the probe molecule toward live RAW 264.7 macrophages cells and cytotoxicity assays confirmed the low toxicity of the probe. The results encouraged to explore the use of the probe as an imaging reagent for the intracellular detection of HNO in these macrophage cells. Cells in DMEM culture media are incubated with ER-HNO (1.0 μM) for 15 min at 37° C. and subsequently viewed under confocal laser scanning microscope (CLSM) using a 530 nm laser as an excitation source.
RAW 264.7 cells were seeded on cover slips placed in 6 well plates. After 24 hours cells washed with DMEM medium then cells were treated with ER-HNO (1 μM) for 25 minutes. Cells were then washed thrice with culture medium and further treated with Angeli's salt (HNO donor) of different concentration for 30 min. After that cells were washed again with Phosphate Buffer Saline (3×PBS). Then cells were fixed with 4% PFA for 10 min. Again cells were washed thrice and then cover slips mounted using mounting medium. Nail paints was used to seal the coverslips mounted on the glass slides. Images were acquired by using Olympus FluoView FV-1000 Confocal Microscope.
RAW 264.7 cells were seeded on Coverslips (22 mm×22 mm, 170±5 μm square Cover glasses) placed in 6-well plates in DMEM culture medium containing (10% FBS and 1% penicillin-streptomycin) for 24 h at 37° C. 5% CO2. […]

Hct116 cells [3] = assay: MTT assay towards live Hct116; format: cell-based
Method: (§1) An MTT assay confirmed the non-toxic nature of probe ER-HNO towards live Hct116. Therefore, ER-HNO is tested as an imaging reagent for the detection of HNO in Hct116 colon cancer. The cells are incubated with probe ER-HNO (1 μM) for 15 min at 37° C. in acetonitrile-PBS buffer (0.2:99.8, v/v) at pH 7.2 and no intracellular fluorescence is observed.

[4] = Fluorescence emission studies for HNO detection in aq. PBS buffer-CH3CN
Method: The spectroscopic properties of ER-HNO in aq. PBS buffer medium under physiological pH medium. No significant difference is observed in the electronic spectra of ER-HNO and ER-S. In order to check the response of ER-HNO probe (10 uM) with in presence of 20 mole equivalent of various ROS and RNS (HNO, HOCl, H2O2, —OH, TBHP, NO3^−, NO2^−, benzoyl peroxide, S^2− and ascorbate) emission spectra are recorded in aq. […] A turn ON emission response is observed for probe ER-HNO, only in presence of HNO with λEms^Max=580 nm (λExt=530 nm). Moreover, no significant changes are observed in presence of different anionic, cationic as well as biothiols under identical experimental condition. The effects of pH on emission spectrum of probe ER-HNO is also investigated. […] Therefore, to explore the bio analytical application, all the studies are carried out at physiological pH medium.
An enhancement in emission signal are observed at λMax=586 nm (Φ=0.105, for λExt=530 nm) with gradual increasing [HNO] (FIG. 1B). A good linearity is observed between emission intensity and concentration of HNO in the range of 2-15 uM, with a lower detection limit of 2 μM. […] PBS buffer medium.
Stock solution of probe ER-HNO (1×10^−4M) was prepared in HPLC grade acetonitrile. All the analytes stock solution (1×10^−2M) was prepared in aqueous HEPES buffer (10 mM) medium at pH 7.2. […]

Artemia nauplii = assay: Fluorescence imaging of Artemia nauplii; format: in vivo; details: probe 1 μM 30 minutes, then HNO
Method: Imaging of Artemia nauplii by luminescence was performed using a fluorescence microscope with a 20×, 0.4 NA microscope objective (Olympus), coupled to an intensified CCD camera. The Artemia nauplii were imaged in both bright-field and epifluorescence geometries. The latter was enabled by a fluorescence filter set. The illumination intensity was about 10 W/mm^2.

SERCA2 = assay: Western blot monitoring of SERCA2; format: cell-based; details: HCT116 cells, Angeli's salt 10 uM, ER-HNO 30 μM, 24 hrs
Method: HCT116 cells were cultured in DMEM medium containing 10% Fetal Bovine Serum (FBS) supplemented with 100 Units of Penicillin Streptomycin antibiotics. Cells were treated with Angeli's salt 10 uM, ER-HNO 30 μM or both for 24 hrs. Prior to the treatment processes, DMEM medium was treated with N-Ethylmalemide (NEM) 1 mM and this medium was used to culture the cells. Post 24 hrs cells harvested and whole cell lysate proteins extracted. 40 ug of the proteins were resolved in SDS PAGE gel and transferred into PVDF membrane using Western Blot methods. The blot was over-night blocked with 5% Bovine Serum Albumin (BSA) at 4° C. 1:4000 dilution of SERCA2 antibody was to probe the blot for 2 hrs at room-temperature (RT). After three washes with 1×TBST, 1:4000 dilution of anti-rabbit HRP conjugated antibody was used to probe the blot for 1 hr at RT. After three washes with IX TBST, the blot was developed using auto-radiography in X-ray film.

Hct116 cells [5] = assay: CLSM imaging of HNO in Hct116 cells; format: cell-based; details: Hct116, probe 1 μM 15 min, then HNO 20 μM
Method: as §1
For confocal studies, Hct116 cells (3×10^5) were seeded on cover slips placed in 6 well plates. After 24 hours, Hct116 cells were treated with ER-HNO (1 μM) for 30 minutes at 37° C. in a 5% CO2 air environment. Cells were then washed thrice with Phosphate Buffer (1×PBS) and fixed with 4% PFA for 20 minutes and washed again with IX PBS. Nail paint was used to seal the cover slips mounted on the glass slides for each well plates. Again Hct116 cells were pre-treated with ER-HNO (1 μM) for 15 minutes, then Hct116 cells were further expose to Angeli's salt (HNO donor), then cells were washed thrice with media and followed by incubation with ER-HNO (1 μM) for another 15 minutes under same conditions. Cells were again washed with 1×PBS buffer and fixed with 4% PFA for 20 minutes and washed again with 1×PBS. Confocal laser scanning microscopic (CLSM) images were acquired in Olympus Fluoview Microscope with λExt/λMon=530/573 nm.

Hct116 cells [6] = assay: Flow cytometry, DCFDA staining; format: cell-based; details: Angeli's salt 10 uM, 30 uM probe, 2 hrs
Method: For DCFDA staining, HCT116 cells were cultured in DMEM medium containing 5 mM glucose supplemented with 10% FBS and 100 Units of antibiotics. Prior to the treatment processes, DMEM medium with 1% FBS was treated with N-Ethylmalemide (NEM) 1 mM and this medium was used to culture the cells further. Cells were treated with Angeli's salt 10 uM, L 30 uM or both for 2 hrs. After treatment cells were harvested by trypsinization and washed with complete DMEM media by centrifugation. Pellet was suspended in 1 ml of PBS buffer. 10 μM DCFDA (Sigma) was added to cells followed by incubation at 37° C. 5% CO2 incubator for 45 mins. DCFDA stained cells were analyzed in BD FACS Canto II using FITC channel. For Annexin V staining cultured HCT116 cells were harvested after trypsinization and washed with 1×PBS buffer. 500 ul of Annexin V binding buffer was used to re-suspend the cells. 5 ul of Annexin-V FITC antibody added to the re-suspended cell and incubated in dark for 5 mins. Antibody stained cells were then analyzed using BD Calibur FACs in FITC channel. The flow cytometry experiment confirmed that probe ER-HNO is capable of reducing RNS & ROS level induced by HNO [FIG. 5 (b)].

(E)-4-(2-(5,5-difluoro-1,7,9-trimethyl-10-phenyl-5H-5l4,6l4-dipyrrolo[1,2-c:2′,1′-f][1,3,2]diazaborinin-3-yl)vinyl)phenyl 2-(diphenylphosphanyl)benzoate [ER-HNO]
IC50 (RAW 264.7 cells [1]; RAW 264.7 cells, 24 hours treatment, read-out: IC50 (MTT cell viability)): 90 µM | toxicity toward live RAW 264.7 macrophages cells (RAW 264.7 cells [1]; cytotoxicity assays): low toxicity | intracellular fluorescence after exposure to AS (RAW 264.7 cells [2]): strong intracellular fluorescence | toxicity towards live Hct116 (MTT assay) (Hct116 cells [3]): non-toxic | emission intensity of the probe within pH range 4-10 ([4]; pH 4-10): remains unaltered | change in emission intensity in presence of other ROS/RNS (selectivity) ([4]; probe 10 uM, 20 mole equivalent of HOCl, H2O2, OH, TBHP, NO3-, NO2-, benzoyl peroxide, S2-, ascorbate): no change in emission intensity | fluorescence in Artemia nauplii on exposure to HNO (Artemia nauplii): strong fluorescence | counteraction of the stabilized expression of SERCA2 (SERCA2): at least 50% | intracellular fluorescence after HNO exposure (Hct116 cells [5]): strong intracellular fluorescence | RNS induced by Angeli's Salt (DCFDA staining) (Hct116 cells [6]): reduced
